This is an account of results in patent publication US5235061A, “Fungicidal (1H-1,2,4-triazolyl)disilaalkanes” (priority 1991, dated 1993).

Several values for one entry are separate records, joined by “and”; a condition that tells them apart may be missing. Identical values can stand only once.

Common to all, as to test: In vitro percent disease control (radii of spore growth on agar)
Assay type in all cases: cell-based

Data set [1] concerns Glomerella cingulata. Particulars: for inhibition of growth at 50 ppm / inhibition of growth at 100 ppm: Colletotrichum gloeosporioides, read-out: % controlled, Glo. The protocol:
(§1) The compounds of this invention were dissolved respectively in acetone in an amount equal to 10% of the final volume and then in purified water at the concentration of 100 ppm and 50 ppm.
(§2) Each of the solution was mixed with potato-sucrose-agar medium in a 6" petri dish and one of the fungi was spotted at the center of the dish. The dish was incubated in growth room for several days. The percent disease control was derived from the radii of spore growth. The screening tests in vitro condition are well-known to those skilled in the art.
(§3) The following fungi were used for the screening.
5) Glo.; Glomerella cingulata

Data set [2] has as its system Phytophthora capsisi. The settings on record: Phytophthora, read-out: % controlled, Phy ca. The protocol:
as §1, §2, §3
2) Phy. ca.; Phytophthora capsisi

Data set [3] relates to Botry tris cinerea. The settings on record: for inhibition of growth at 50 ppm / inhibition of growth at 100 ppm: read-out: % controlled, Bo ci. The protocol: as §1, §2, §3
10) Bo.ci.; Botry tris cinerea

In data set [4] the test system is Fusarium moniliforme. How it is done: as §1, §2, §3
8) Fu.mo.; Fusarium moniliforme

Data set [5] has as its system Physalospora baccae. The settings on record: for inhibition of growth at 50 ppm / inhibition of growth at 100 ppm: read-out: % controlled, Phy ba. The protocol: as §1, §2, §3
3) Phy. ba.; Physalospora baccae

Data set [6] has as its system Botryosphaeria dothidea Macrophoma sp. Particulars: for inhibition of growth at 50 ppm / inhibition of growth at 100 ppm: Botryosphaeria dothidea, read-out: % controlled, Bo.do (Ma.). The protocol: as §1, §2, §3
4) Bo.do(Ma); Botryosphaeria dothidea Macrophoma sp.

For data set [7], the system named is Pyricalaria oryzae. The settings on record: for inhibition of growth at 50 ppm: read-out: % controlled, Py. or., 50 ppm; for inhibition of growth at 100 ppm: read-out: % controlled, Py. or., 100 ppm. The protocol:
as §1, §2, §3
6) Py.or.; Pyricalaria oryzae

Data set [8] concerns Alternaria mali. Particulars: for inhibition of growth at 50 ppm / inhibition of growth at 100 ppm: Alternaria mali, read-out: % controlled, Al. How it is done: as §1, §2, §3
In data set [9] the test system is Rhizopus sp. Particulars: for inhibition of growth at 50 ppm / inhibition of growth at 100 ppm: Rhizopus, read-out: % controlled, Rhi. sp. The protocol:
as §1, §2, §3

In data set [10] the test system is Rhizoctonia solani. The settings on record: for inhibition of growth at 50 ppm / inhibition of growth at 100 ppm: Rhizoctonia solani, read-out: % controlled, Rhy. so. The protocol:
as §1, §2, §3
7) Rhi.so.; Rhizoctonia solani

Consider `C=CC[Si](C[Si](C)(Cn1cncn1)c1ccc(F)cc1)(c1ccccc1)c1ccc(-c2ccccc2)cc1` (stereo not drawn), for which the inhibition of growth at 50 ppm in data set [1] (50 ppm) is 100%; in data set [2] it was 27%; in data set [3] (50 ppm), 86%; in data set [5] (50 ppm) it was 100%; in data set [6] (50 ppm), 100%; in data set [7], 85%. Moreover, the figures for the inhibition of growth at 50 ppm in [8] (50 ppm) and in [9] (50 ppm) were 78% and 100%, respectively. Besides, the inhibition of growth at 100 ppm in data set [1] (100 ppm) is 100%; in data set [2], 50%; in data set [3] (100 ppm) it was 100%; in [5] (100 ppm), 100%; in data set [6] (100 ppm), 100%; in data set [7], 100%. Moreover, the inhibition of growth at 100 ppm in data set [8] (100 ppm) and in [9] (100 ppm) was 100% each time. Moreover, the “% controlled, Fu. mo.” value in [4] (50 ppm) and in data set [4] (100 ppm) was 100% throughout.
Regarding “2-(4-chlorophenyl)-2-(4-fluorophenyl)-2,4-dimethyl-1-(1H-1,2,4-triazol-1-yl)pentane”, the “% controlled, Glo.” value in data set [1] (50 ppm) and in data set [1] (100 ppm) was 87% each time. In addition, the “% controlled, Rhy. so.” value in data set [10] (50 ppm) and in data set [10] (100 ppm) was 96% in each case. Moreover, the “% controlled, Bo ci.” value in [3] (50 ppm) and in data set [3] (100 ppm) was 90% each time. Moreover, the “% controlled, Fu. mo.” value in data set [4] (50 ppm) and in data set [4] (100 ppm) was 46% each time. In addition, the “% controlled, Phy ba.” value in [5] (50 ppm) and in [5] (100 ppm) was 69% throughout. The “% controlled, Bo.do (Ma.)” value in data set [6] (50 ppm) and in data set [6] (100 ppm) was 79% throughout. Also, the “% controlled, Py. or.” value in data set [7] (50 ppm) and in [7] (100 ppm) was 100% throughout. Besides, the “% controlled, Al.” value turned out to be 75% in data set [8] (50 ppm) and 79% in [8] (100 ppm). Further, the “% controlled, Rhi. sp.” value in data set [9] (50 ppm) and in data set [9] (100 ppm) was 50% each time.
With `C[Si](C)(C)C[Si](Cn1cncn1)(c1ccc(F)cc1)c1ccc(F)cc1` [2,2-bis(4-fluorophenyl)-4,4-dimethyl-2,4-disila-1-(1H-1,2,4-triazol-1-yl)pentane], the inhibition of growth at 50 ppm was 60% in [1] (50 ppm); 6% in data set [2]; 60% in data set [10] (50 ppm); 20% in data set [5] (50 ppm); 31% in data set [6] (50 ppm); 57% in [7]. Further, the figures for the inhibition of growth at 50 ppm in [8] (50 ppm) and in [9] (50 ppm) were 32% and 24%, respectively. Moreover, the inhibition of growth at 100 ppm was 67% in data set [1] (100 ppm); 6% in data set [2]; 67% in data set [10] (100 ppm); 24% in data set [5] (100 ppm); 37% in data set [6] (100 ppm); 61% in data set [7]. The inhibition of growth at 100 ppm was 35% in data set [8] (100 ppm) and 29% in data set [9] (100 ppm). For the same compound, the “% controlled, Fu. mo.” value in [4] (50 ppm) was found to be 31%; in data set [4] (100 ppm), 34%.
As for `C[Si](C)(C[Si](Cn1cncn1)(c1ccc(F)cc1)c1ccc(-c2ccccc2)cc1)c1ccc(F)cc1` (stereo not drawn) [2,4-bis(4-fluorophenyl)-2-(4-phenylphenyl)-4-methyl-2,4-disila-1-(1H-1,2,4-triazol-1-yl)pentane], the “% controlled, Glo.” value in data set [1] (50 ppm) is given as 76%; in [1] (100 ppm), 78%. For the same compound, the inhibition of growth at 50 ppm in data set [1] (50 ppm) was 87%; in data set [2], 12%. Further, the inhibition of growth at 100 ppm turned out to be 87% in data set [1] (100 ppm) and 14% in data set [2]. For the same compound, the “% controlled, Bo ci.” value in data set [3] (100 ppm) is 90% and 47%. Also, the “% controlled, Fu. mo.” value is 46% and 41% in data set [4] (50 ppm); 46% and 45% in [4] (100 ppm). For the same compound, the “% controlled, Bo.do (Ma.)” value in data set [6] (50 ppm) is 79% and 43%; in data set [6] (100 ppm) it was 79% and 51%. Further, the “% controlled, Py. or.” value in data set [7] (50 ppm) was 100% and 50%; in data set [7] (100 ppm), 100% and 50%. For the same compound, the “% controlled, Al.” value is 75% and 38% in data set [8] (50 ppm); 79% and 46% in [8] (100 ppm).
`C=CC[Si](Cn1cncn1)(C[Si](CC=C)(c1ccc(F)cc1)c1ccc(-c2ccccc2)cc1)c1ccc(F)cc1` (stereo not drawn) [4,6-(4-fluorophenyl)-6-(4-phenylphenyl)-4,6-disila-4-(1H-1,2,4-triazol-1-ylmethyl)-1,8-nonadiene]: the inhibition of growth at 50 ppm in data set [1] (50 ppm) is 85%; in data set [2], 75%; in data set [10] (50 ppm), 90%; in [5] (50 ppm), 60%; in data set [6] (50 ppm), 79%; in data set [7], 100%. The inhibition of growth at 50 ppm turned out to be 62% in data set [8] (50 ppm) and 56% in data set [9] (50 ppm). Further, the inhibition of growth at 100 ppm was determined as 87% in [1] (100 ppm); 75% in data set [2]; 96% in data set [10] (100 ppm); 65% in data set [5] (100 ppm); 79% in data set [6] (100 ppm); 100% in [7]. The figures for the inhibition of growth at 100 ppm in data set [8] (100 ppm) and in data set [9] (100 ppm) were 65% and 56%, respectively. Moreover, the “% controlled, Fu. mo.” value in [4] (50 ppm) is listed as 40%; in data set [4] (100 ppm), 46%.
As for `C=CC[Si](C)(Cn1cncn1)C[Si](CC=C)(c1ccc(OCC)cc1)c1ccc(OCC)cc1` (stereo not drawn) [6,6-bis(4-ethoxyphenyl)-4-methyl-4,6-disila-4-(1H-1,2,4-triazol-1-ylmethyl)-1,8-nonadiene], the inhibition of growth at 50 ppm was determined as 100% in [1] (50 ppm); 55% in data set [2]; 100% in data set [10] (50 ppm); 100% in data set [3] (50 ppm); 70% in data set [6] (50 ppm); 100% in data set [7]. Also, the inhibition of growth at 50 ppm in data set [8] (50 ppm) came out at 100%; in [9] (50 ppm), 80%. The inhibition of growth at 100 ppm is 100% in data set [1] (100 ppm); 60% in data set [2]; 100% in data set [10] (100 ppm); 100% in [3] (100 ppm); 72% in data set [6] (100 ppm); 100% in data set [7]. The values for the inhibition of growth at 100 ppm in data set [8] (100 ppm) and in data set [9] (100 ppm) were 100% and 80%, respectively. The “% controlled, Fu. mo.” value in [4] (50 ppm) and in [4] (100 ppm) was 100% each time.
Take `C=CC[Si](CC=C)(Cn1cncn1)C[Si](CC=C)(CC=C)c1ccccc1` [6-phenyl-4,6-bis(2-propenyl)-4,6-disila-4-(1H-1,2,4-triazol-1-ylmethyl)-1,8-nonadiene]: the inhibition of growth at 50 ppm in [1] (50 ppm) came out at 70%; in data set [2] it was 60%; in [3] (50 ppm), 80%; in data set [5] (50 ppm), 60%; in data set [6] (50 ppm) it was 65%; in data set [7], 60%. Moreover, the inhibition of growth at 50 ppm in data set [8] (50 ppm) is 75%; in data set [9] (50 ppm), 50%. The inhibition of growth at 100 ppm in [1] (100 ppm) stood at 87%; in data set [2], 70%; in [3] (100 ppm), 96%; in data set [5] (100 ppm) it was 69%; in [6] (100 ppm), 70%; in data set [7] it was 90%. Also, the inhibition of growth at 100 ppm in data set [8] (100 ppm) was found to be 79%; in [9] (100 ppm) it was 50%. The “% controlled, Fu. mo.” value in data set [4] (50 ppm) and in data set [4] (100 ppm) was 46% in each case.
